{"source": "patent US10005739B2", "about": "“Quinazolinone and isoquinolinone derivative” (CHUGAI SEIYAKU KABUSHIKI KAISHA, priority 2013, dated 2018)", "key": {"DDR1 [1]": {"target": "T1, DDR1 (Homo sapiens (Human), UniProt Q08345)", "T1 sequence (Q08345 19-913)": "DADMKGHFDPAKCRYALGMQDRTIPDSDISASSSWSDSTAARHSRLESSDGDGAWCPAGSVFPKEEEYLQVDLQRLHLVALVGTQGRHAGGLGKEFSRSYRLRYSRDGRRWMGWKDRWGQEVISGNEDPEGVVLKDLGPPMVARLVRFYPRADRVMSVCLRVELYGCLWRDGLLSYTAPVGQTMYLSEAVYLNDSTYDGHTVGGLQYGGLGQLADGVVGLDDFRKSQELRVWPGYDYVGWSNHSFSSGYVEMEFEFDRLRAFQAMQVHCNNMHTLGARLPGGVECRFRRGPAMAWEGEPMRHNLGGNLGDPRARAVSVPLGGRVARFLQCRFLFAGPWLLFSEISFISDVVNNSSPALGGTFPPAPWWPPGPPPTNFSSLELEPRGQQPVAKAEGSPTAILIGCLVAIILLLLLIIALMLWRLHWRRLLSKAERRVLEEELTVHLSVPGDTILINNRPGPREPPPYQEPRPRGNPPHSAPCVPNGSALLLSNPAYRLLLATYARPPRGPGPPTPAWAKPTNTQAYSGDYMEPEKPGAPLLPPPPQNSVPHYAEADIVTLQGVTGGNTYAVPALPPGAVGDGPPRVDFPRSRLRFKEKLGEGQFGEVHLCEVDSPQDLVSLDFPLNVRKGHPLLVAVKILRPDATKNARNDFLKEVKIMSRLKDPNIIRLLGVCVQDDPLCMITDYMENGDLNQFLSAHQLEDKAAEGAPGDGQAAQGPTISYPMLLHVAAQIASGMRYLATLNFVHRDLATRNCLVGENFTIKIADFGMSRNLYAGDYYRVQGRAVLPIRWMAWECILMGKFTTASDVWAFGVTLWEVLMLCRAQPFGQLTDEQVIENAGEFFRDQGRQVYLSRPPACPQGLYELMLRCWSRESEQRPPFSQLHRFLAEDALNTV", "test": "Measurement of DDR1 binding activity (LanthaScreen Eu Kinase Binding Assay)", "description": "2. Measurement of DDR1 Binding Activity\nDDR1 binding activity was measured using the LanthaScreen (Registered trademark) Eu Kinase Binding Assay (manufactured by Life Technologies Corporation). […] After one-hour reaction at room temperature, the fluorescence resonance energy transfer was measured."}, "DDR1 [2]": {"target": "T1, DDR1", "test": "Measurement of DDR1 enzyme inhibitory activity (phosphorylation of biotinylated peptide, time-resolved fluorescence)", "format": "biochemical", "settings": "human DDR1 enzyme, biotinylated peptide phosphorylation; read-out: DDR1 enzyme inhibition assay IC50", "in_short": "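Baculovirus-expressed human DDR1 phosphorylated a biotinylated peptide, and inhibition of that phosphorylation was measured. Phosphopeptide was detected by time-resolved fluorescence using europium cryptate–labelled anti-phosphotyrosine antibody with streptavidin-XL665.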"}, "[3]": {"system": "human endometrial cancer cell line MFE-280", "test": "Measurement of antitumor effect in MFE-280 cancer-bearing nude mice", "format": "in vivo", "settings": "MFE-280 xenograft in BALB/c nude mice, 200 mg/kg orally once daily, 11th day"}}}
{"molecule": "CCS(=O)(=O)c1ccc(Cl)cc1Cn1cnc2c(Cl)c(CO)c(C(F)(F)F)cc2c1=O", "note": "[Compound K-26, 8-Chloro-3-[(5-chloro-2-ethylsulfonylphenyl)methyl]-7-(hydroxymethyl)-6-(trifluoromethyl)quinazolin-4-one]", "values": [{"measurement": "IC50", "setting": "DDR1 [1]", "value": 240, "unit": "nM"}]}
{"molecule": "N#Cc1ccc(Sc2ccccc2)c(Nn2cnc3ccc(C(F)(F)F)cc3c2=O)c1", "note": "[Compound B-15, 3-[[4-Oxo-6-(trifluoromethyl)quinazolin-3-yl]amino]-4-phenylsulfanylbenzonitrile]", "values": [{"measurement": "IC50", "setting": "DDR1 [2]", "value": 860, "unit": "nM"}]}
{"molecule": "CCSc1ccc(OC)cc1Nn1cnc2ccc(OC(F)(F)F)cc2c1=O", "note": "[Compound C-27, 3-(2-Ethylsulfanyl-5-methoxyanilino)-6-(trifluoromethoxy)quinazolin-4-one]", "values": [{"measurement": "IC50", "setting": "DDR1 [2]", "value": 200, "unit": "nM"}]}
{"molecule": "CCS(=O)(=O)c1ccc(Cl)cc1Cn1ccc2ccc(OC)cc2c1=O", "note": "[Compound F-3, 2-[(5-Chloro-2-ethylsulfonylphenyl)methyl]-7-methoxyisoquinolin-1-one]", "values": [{"measurement": "IC50", "setting": "DDR1 [2]", "value": 490, "unit": "nM"}]}
{"molecule": "CSc1ccc(Cl)cc1Nn1cnc2c(Br)cc(C)cc2c1=O", "note": "[Compound B-1, 8-Bromo-3-(5-chloro-2-methylsulfanylanilino)-6-methylquinazolin-4-one]", "values": [{"measurement": "IC50", "setting": "DDR1 [2]", "value": 250, "unit": "nM"}]}
{"molecule": "CCS(=O)(=O)c1ccc(Cl)cc1Nn1cnc2ncc(Br)cc2c1=O", "note": "[Compound A-17, 6-Bromo-3-(5-chloro-2-ethylsulfonylanilino)pyrido[2,3-d]pyrimidin-4-one]", "values": [{"measurement": "IC50", "setting": "DDR1 [2]", "value": 270, "unit": "nM"}]}
{"molecule": "CCS(=O)(=O)c1ccc(Cl)cc1Nn1cnc2ccc(F)cc2c1=O", "note": "[Compound A-29, 3-(5-Chloro-2-ethylsulfonylanilino)-6-fluoroquinazolin-4-one]", "values": [{"measurement": "IC50", "setting": "DDR1 [2]", "value": 340, "unit": "nM"}]}
{"molecule": "CCS(=O)(=O)c1ccc(Cl)cc1Nn1cnc2ccc(OC(F)(F)F)cc2c1=O", "note": "[Compound A-45, 3-(5-Chloro-2-ethylsulfonylanilino)-6-(trifluoromethoxy)quinazolin-4-one]", "values": [{"measurement": "TGI after 11 days", "setting": "[3]", "value": 72, "unit": "%"}]}
